# Source: patent US7217527B2, “Assay for phosphodiesterase function” (Vanderbilt University, priority 2003, dated 2007)
# Legend:
# [1] = system: second peak of cGMP PDE activity (human lung extract); conditions: 40 pmol/ml sildenafil; 0.4 μM [^3H]cGMP substrate
# Procedure: PKG activity was determined in the presence of 2 μM cGMP as described in Materials and Methods.
# PDE activity was determined by a modified assay (Martins et al., 1982) as described earlier (Gopal et al., 2001) using 0.4 μM [^3H]cGMP as substrate. PKG activity was determined in the presence of 2 μM cGMP as described (Gopal et al., 2001).
# GAF domains of PDE5 = GAF domains of PDE5 (Homo sapiens, UniProt O76074); conditions: cited from earlier work
# PDE5 = PDE5 (Homo sapiens, UniProt O76074); conditions: read-out: Km for the catalytic site; cited from earlier work
# [2] = biological target: T1, isolated regulatory domain of PDE5 (Homo sapiens, UniProt O76074); type: binding
# T1 construct: made in house
# Procedure: Reactions were incubated on an ice water bath for 20 min. […] Tubes were each rinsed with 3 ml of the same buffer and filtered. The filter membranes were removed and placed into slots of a scintillation vial box for subsequent drying. The vial box was placed into a glassware dryer for 10 min, and dried papers were transferred to 6 ml scintillation vials. Five ml non-aqueous scintillant was added, and papers were counted in a scintillation counter.
# crude human lung extract = biological target: T2, crude human lung extract (Homo sapiens, UniProt O76074); test: [^3H]sildenafil binding in DEAE-Sephacel fractions of crude human lung extract (FIG. 5); conditions: 16 nM [^3H]sildenafil
# T2 construct: from tissue; host or cells: human lung (explanted lung of transplant patients), supernatant fractionated on DEAE-Sephacel
# Procedure: 5 g human lung was thawed, cut into small pieces and homogenized in 80 ml 2.5 mM potassium phosphate (pH 6.8) containing 0.25 mM EDTA, 0.025 mM IBMX, 4 mM β-mercaptoethanol, and 1 mM CaCl2 with a Cuisinart apparatus (high speed) using 3 bursts of 15 sec each at 4° C. After centrifugation in a Beckman JA-20 rotor for 30 min at 10,000×g, 72 ml supernatant was applied to a DEAE-Sephacel column (0.9×10 cm) equilibrated in KPM and the column was washed with 20 ml of KPM containing 20 mM NaCl and 1 mM CaCl2. The column was developed with a linear (20–280 mM) NaCl gradient in KPM containing 1 mM CaCl2. […] PKG activity was determined in the presence of 2 μM cGMP as described in Materials and Methods.
compound,measurement,setting,value
CCCc1nn(C)c2c(=O)[nH]c(-c3cc(S(=O)(=O)N4CCN(C)CC4)ccc3OCC)nc12 [sildenafil],inhibition of second peak of cGMP PDE activity,[1],not inhibited
same,competition with [^3H]cGMP for binding to the GAF domains of PDE5,"GAF domains of PDE5; even at high concentrations (Turko et al., 1999)",does not compete
Nc1nc2c(ncn2[C@@H]2O[C@@H]3COP(=O)(O)O[C@H]3[C@H]2O)c(=O)[nH]1 [cGMP],Km,PDE5,5 µM
same,Kd,GAF domains of PDE5,200 nM
CCCc1nn(C)c2c(=O)[nH]c(-c3cc(S(=O)(=O)N4CCN(C)CC4)ccc3OCC)nc12 [[^3H]sildenafil],binding to isolated regulatory domain of PDE5,[2],did not detectably bind
same,[^3H]sildenafil-binding activity other than the PDE5 peak,crude human lung extract,no other significant peak
